Data: patent publication US9770026B2, “Substituted pyrimidine compound and uses thereof” (Shenyang Sinochem Agrochemicals R&D Co., Ltd., priority 2012, dated 2017)

Experiments:
[1] = system: Green peach aphids (Myzus Persicae Sulzer); experiment: bioactivity test against green peach aphid, airbrush foliar spray; assay type: in vivo; details: death rate after 48 hrs
Experimental: Compounds were dissolved in mixed solvent (acetone:methanol=1:1), and diluted to required concentration with water containing 0.1% of tween 80.
Diamond back moth, armyworm, peach aphid and carmine spider mite were used as targets and the method of spraying by airbrush was used for determination of insecticidal biassays.
Method: Filter papers were put in culture dishes (Diameter=6 cm), and water was dripped on filter papers for preserving moisture. Green peach aphids (Myzus Persicae Sulzer) were maintained on cabbage. Leaves (Diameter=3 cm) of approximately 15-30 aphids were put in the culture dishes. Bioactivity tests were used the method of Airbrush Foliar Spray, pressure=10 psi (0.7 kg/cm2), spray volume=0.5 mL. The studies were conducted at […] 25±1 C in incubator cabinets with 60±5% RH. Survey the survival aphids after 48 hrs and calculate the death rates.

wheat powdery mildew = experiment: protectant activity in vivo against wheat powdery mildew
cucumber downy mildew = experiment: protectant activity in vivo against cucumber downy mildew; details: for control effect against cucumber downy mildew (%): protectant activity
corn rust = experiment: protectant activity in vivo against corn rust; details: 400 ppm

Cc1ncnc(NCCc2ccc(Oc3ncc(C(F)(F)F)cc3Cl)c(Cl)c2)c1Cl [Compound I-1414]
100%: control (test results against green peach aphid) ([1]; 100 ppm) | control (test results against green peach aphid) ([1]; 600 ppm) | protectant activity against wheat powdery mildew in vivo (wheat powdery mildew; 100 ppm) | protectant activity against wheat powdery mildew in vivo (wheat powdery mildew; 400 ppm)

Cc1ncnc(NCCc2ccc(Oc3ncc(C(F)(F)F)cc3Cl)cc2)c1Br [Compound I-1878]
100%: protectant activity against cucumber downy mildew in vivo (cucumber downy mildew; 400 ppm) | control (test results against green peach aphid) ([1]; 10 ppm) | control (test results against green peach aphid) ([1]; 100 ppm) | control (test results against green peach aphid) ([1]; 600 ppm) | protectant activity against corn rust in vivo (corn rust)

Cc1ncnc(NCCc2ccc(Oc3cc(Cl)cc(Cl)c3)cc2)c1Cl [II-25]
100%: protectant activity against cucumber downy mildew in vivo (cucumber downy mildew; 400 ppm) | control (test results against green peach aphid) ([1]; 600 ppm) | protectant activity against wheat powdery mildew in vivo (wheat powdery mildew; 400 ppm)

Cc1ncnc(NCCc2ccc(Oc3c([N+](=O)[O-])cc(Cl)cc3C(F)(F)F)cc2)c1Cl [II-202]
100%: protectant activity against cucumber downy mildew in vivo (cucumber downy mildew; 400 ppm)

Cc1ncnc(NCCc2ccc(Oc3ccc([N+](=O)[O-])c(Cl)c3C)cc2)c1Cl [II-236]
100%: control effect against cucumber downy mildew (%) (cucumber downy mildew; 25 mg/L) | control effect against cucumber downy mildew (%) (cucumber downy mildew; 50 mg/L) | control effect against cucumber downy mildew (%) (cucumber downy mildew; 100 mg/L) | control effect against cucumber downy mildew (%) (cucumber downy mildew; 400 mg/L) | protectant activity against cucumber downy mildew in vivo (cucumber downy mildew; 25 ppm) | protectant activity against cucumber downy mildew in vivo (cucumber downy mildew; 50 ppm) | protectant activity against cucumber downy mildew in vivo (cucumber downy mildew; 100 ppm) | protectant activity against cucumber downy mildew in vivo (cucumber downy mildew; 400 ppm) | control (test results against green peach aphid) ([1]; 600 ppm)

O=[N+]([O-])c1cc(Cl)ccc1Oc1ccc(CCNc2ncnc(C(F)F)c2Cl)cc1 [II-9058]
100%: protectant activity against cucumber downy mildew in vivo (cucumber downy mildew; 400 ppm) | protectant activity against wheat powdery mildew in vivo (wheat powdery mildew; 400 ppm)

Cc1ncnc(NCCc2ccc(Oc3ccc(C(F)(F)F)cc3Cl)nc2)c1Cl [III-121]
100%: control effect against cucumber downy mildew (%) (cucumber downy mildew; 25 mg/L) | control effect against cucumber downy mildew (%) (cucumber downy mildew; 50 mg/L) | control effect against cucumber downy mildew (%) (cucumber downy mildew; 100 mg/L) | control effect against cucumber downy mildew (%) (cucumber downy mildew; 400 mg/L) | protectant activity against cucumber downy mildew in vivo (cucumber downy mildew; 25 ppm) | protectant activity against cucumber downy mildew in vivo (cucumber downy mildew; 50 ppm) | protectant activity against cucumber downy mildew in vivo (cucumber downy mildew; 100 ppm) | protectant activity against cucumber downy mildew in vivo (cucumber downy mildew; 400 ppm) | control (test results against green peach aphid) ([1]; 100 ppm) | control (test results against green peach aphid) ([1]; 600 ppm) | protectant activity against wheat powdery mildew in vivo (wheat powdery mildew; 100 ppm) | protectant activity against wheat powdery mildew in vivo (wheat powdery mildew; 400 ppm)

CCc1ncnc(NCCc2ccc(Oc3ccc(Cl)cc3C)nc2)c1Cl [III-290]
100%: protectant activity against cucumber downy mildew in vivo (cucumber downy mildew; 400 ppm)

Cc1nc(Cl)c(Cl)c(NCCc2ccc(Oc3ccccc3)nc2)n1 [III-2521]
100%: control effect against cucumber downy mildew (%) (cucumber downy mildew; 12.5 mg/L) | control effect against cucumber downy mildew (%) (cucumber downy mildew; 25 mg/L) | control effect against cucumber downy mildew (%) (cucumber downy mildew; 50 mg/L) | control effect against cucumber downy mildew (%) (cucumber downy mildew; 100 mg/L) | control effect against cucumber downy mildew (%) (cucumber downy mildew; 400 mg/L) | protectant activity against cucumber downy mildew in vivo (cucumber downy mildew; 12.5 ppm) | protectant activity against cucumber downy mildew in vivo (cucumber downy mildew; 25 ppm) | protectant activity against cucumber downy mildew in vivo (cucumber downy mildew; 50 ppm) | protectant activity against cucumber downy mildew in vivo (cucumber downy mildew; 100 ppm) | protectant activity against cucumber downy mildew in vivo (cucumber downy mildew; 400 ppm) | protectant activity against corn rust in vivo (corn rust)

Cc1nc(Cl)c(Cl)c(NCCc2ccc(Oc3cccc(Cl)c3)nc2)n1 [III-2526]
100%: protectant activity against cucumber downy mildew in vivo (cucumber downy mildew; 25 ppm) | protectant activity against cucumber downy mildew in vivo (cucumber downy mildew; 50 ppm) | protectant activity against cucumber downy mildew in vivo (cucumber downy mildew; 100 ppm) | protectant activity against cucumber downy mildew in vivo (cucumber downy mildew; 400 ppm) | protectant activity against corn rust in vivo (corn rust)

Cc1nc(Cl)c(Cl)c(NCCc2ccc(Oc3cccc(C(F)(F)F)c3)nc2)n1 [III-2541]
100%: protectant activity against cucumber downy mildew in vivo (cucumber downy mildew; 50 ppm) | protectant activity against cucumber downy mildew in vivo (cucumber downy mildew; 100 ppm) | protectant activity against cucumber downy mildew in vivo (cucumber downy mildew; 400 ppm) | protectant activity against wheat powdery mildew in vivo (wheat powdery mildew; 400 ppm)
